Measured values as given in patent publication US12338243B2, “P2X7 modulators” (JANSSEN PHARMACEUTICA NV, priority 2014, dated 2025).
pIC50, pKi: −log10 of the molar value.

Key:
rat P2X7 = target: T1, rat P2X7 (Rattus norvegicus, UniProt Q64663); assay: Ca2+ flux (FLIPR) in 1321N1 cells expressing recombinant rat P2X7 channel; conditions: FLIPR (rat) IC50 (μM), 250 μM BzATP
T1 sequence (Q64663 1-595): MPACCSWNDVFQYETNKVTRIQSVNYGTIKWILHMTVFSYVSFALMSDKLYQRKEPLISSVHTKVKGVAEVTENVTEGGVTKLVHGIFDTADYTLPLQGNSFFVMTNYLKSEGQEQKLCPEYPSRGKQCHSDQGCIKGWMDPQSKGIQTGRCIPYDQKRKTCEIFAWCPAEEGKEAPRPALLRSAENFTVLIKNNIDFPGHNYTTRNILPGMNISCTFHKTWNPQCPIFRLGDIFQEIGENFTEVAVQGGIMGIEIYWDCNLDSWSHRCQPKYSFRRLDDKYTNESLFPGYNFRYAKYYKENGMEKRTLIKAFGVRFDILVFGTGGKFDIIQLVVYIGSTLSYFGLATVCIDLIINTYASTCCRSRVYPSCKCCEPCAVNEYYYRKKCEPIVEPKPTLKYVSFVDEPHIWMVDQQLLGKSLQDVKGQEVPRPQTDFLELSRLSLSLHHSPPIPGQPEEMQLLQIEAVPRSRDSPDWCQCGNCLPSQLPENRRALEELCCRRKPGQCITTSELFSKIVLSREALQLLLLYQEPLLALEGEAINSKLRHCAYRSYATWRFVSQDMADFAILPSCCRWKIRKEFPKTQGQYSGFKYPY

P2X7 [1] = target: T2, P2X7 (Homo sapiens, UniProt Q99572); assay: Radioligand binding, human P2X7-1321N1 cell membranes, tritiated A-804598
T2 sequence (Q99572 1-595): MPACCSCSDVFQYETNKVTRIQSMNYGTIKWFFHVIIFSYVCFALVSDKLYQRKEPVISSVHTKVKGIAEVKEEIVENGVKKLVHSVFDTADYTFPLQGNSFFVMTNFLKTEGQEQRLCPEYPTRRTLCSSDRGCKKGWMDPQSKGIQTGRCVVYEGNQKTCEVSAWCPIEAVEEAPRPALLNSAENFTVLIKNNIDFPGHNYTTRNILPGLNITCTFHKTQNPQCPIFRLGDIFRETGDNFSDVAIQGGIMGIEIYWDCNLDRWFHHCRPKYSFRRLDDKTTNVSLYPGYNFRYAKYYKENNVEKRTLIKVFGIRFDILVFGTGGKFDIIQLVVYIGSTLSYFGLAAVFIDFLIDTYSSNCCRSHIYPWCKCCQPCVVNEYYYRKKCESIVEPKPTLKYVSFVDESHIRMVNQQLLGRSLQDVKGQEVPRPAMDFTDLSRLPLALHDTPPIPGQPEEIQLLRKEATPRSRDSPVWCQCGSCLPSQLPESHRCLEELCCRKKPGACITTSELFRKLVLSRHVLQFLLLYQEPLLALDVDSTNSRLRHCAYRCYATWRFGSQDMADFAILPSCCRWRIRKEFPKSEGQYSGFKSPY
Excerpt: P2X7 Antagonism in Recombinant Human P2X7 Cells or Recombinant Rat P2X7 Cells: (a) Ca^2+ Flux and (b) Radioligand Binding

P2X7 [2] = target: T2, P2X7; assay: Ca2+ flux (FLIPR) in 1321N1 cells expressing recombinant human P2X7 channel; assay type: cell-based; design: expressed in transfected cells; host or cells: 1321N1 cells; conditions: 250 μM BzATP
How it was run: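 1321N1 cells expressing recombinant human P2X7, loaded 60 min with Calcium-4 dye in HEPES buffer pH 7.40 (1 mM CaCl2, 1 mM MgCl2), preincubated 30 min with compounds. Fluorescence change recorded 180 seconds after agonist addition.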

IC50 (rat P2X7) [µM] | pKi (P2X7 [1]) | pIC50 (P2X7 [2]) | Compound
0.0071 | 7.00 | 7.82 | O=C(c1cccc(C(F)(F)F)c1Cl)N1CCn2c(-c3ccco3)nnc2C1c1ccccc1 (racemic) [Example 79, (±)-(2-chloro-3-(trifluoromethyl)phenyl)(3-(furan-2-yl)-8-phenyl-5,6-dihydro-[1,2,4]triazolo[4,3-a]pyrazin-7(8H)-yl)methanone]
0.395 | 7.70 | 7.25 | CC(O)c1nnc2n1CCN(C(=O)c1cccc(C(F)(F)F)c1Cl)C2c1ccccc1 (racemic) [Example 80, (±)-(2-chloro-3-(trifluoromethyl)phenyl)(3-(1-hydroxyethyl)-8-phenyl-5,6-dihydro-[1,2,4]triazolo[4,3-a]pyrazin-7(8H)-yl)methanone]
1.02 | 7.40 | 7.52 | Cc1nnc2n1CCN(C(=O)c1cccc(C(F)(F)F)c1Cl)C2c1ccccn1 (racemic) [Example 85, (±)-(2-chloro-3-(trifluoromethyl)phenyl)(3-methyl-8-(pyridin-2-yl)-5,6-dihydro-[1,2,4]triazolo[4,3-a]pyrazin-7(8H)-yl)methanone]
0.964 | 7.70 | 7.92 | O=C(c1cccc(Cl)c1Cl)N1CCn2c(nnc2C(F)(F)F)C1c1ccccc1 (racemic) [Example 90, (±)-(2,3-dichlorophenyl)(8-phenyl-3-(trifluoromethyl)-5,6-dihydro-[1,2,4]triazolo[4,3-a]pyrazin-7(8H)-yl)methanone]
5.06 | 7.50 | 7.56 | Cc1nnc2n1CCN(C(=O)c1cccc(C(F)(F)F)c1Cl)C2c1ccc(F)cc1 (racemic) [Example 101, (±)-(2-chloro-3-(trifluoromethyl)phenyl)(8-(4-fluorophenyl)-3-methyl-5,6-dihydro-[1,2,4]triazolo[4,3-a]pyrazin-7(8H)-yl)methanone]
28.2 | 6.90 | 6.59 | O=C(c1cccc(C(F)(F)F)c1Cl)N1CCn2c(nnc2C(F)(F)F)C1c1cccnc1 (racemic) [Example 127, (±)-(2-chloro-3-(trifluoromethyl)phenyl)(8-(pyridin-3-yl)-3-(trifluoromethyl)-5,6-dihydro-[1,2,4]triazolo[4,3-a]pyrazin-7(8H)-yl)methanone]
0.0177 | 7.00 | 7.71 | CC1c2nnc(-c3ccccn3)n2CCN1C(=O)c1ccnc(C(F)(F)F)c1Cl (stereo not drawn) [Example 16, (3-chloro-2-(trifluoromethyl)pyridin-4-yl)(8-methyl-3-(pyridin-2-yl)-5,6-dihydro-[1,2,4]triazolo[4,3-a]pyrazin-7(8H)-yl)methanone]
4.59 | 6.60 | 6.76 | CC1c2nnc(-c3ccc(Cl)cc3)n2CCN1C(=O)c1cccc(C(F)(F)F)c1Cl (stereo not drawn) [Example 37, (2-chloro-3-(trifluoromethyl)phenyl)(3-(4-chlorophenyl)-8-methyl-5,6-dihydro-[1,2,4]triazolo[4,3-a]pyrazin-7(8H)-yl)methanone]
2.05 | 6.50 | 6.32 | Cc1nnc2n1CCN(C(=O)c1cccc(C(F)(F)F)c1Cl)[C@@H]2c1ccccc1 [Example 67, (R)-(2-chloro-3-(trifluoromethyl)phenyl)(3-methyl-8-phenyl-5,6-dihydro-[1,2,4]triazolo[4,3-a]pyrazin-7(8H)-yl)methanone]
0.0031 | 7.70 | 8.60 | O=C(c1cccc(C(F)(F)F)c1Cl)N1CCn2c(-c3ccco3)nnc2[C@@H]1c1ccccc1 [Example 84, (S)-(2-chloro-3-(trifluoromethyl)phenyl)(3-(furan-2-yl)-8-phenyl-5,6-dihydro-[1,2,4]triazolo[4,3-a]pyrazin-7(8H)-yl)methanone]
2.13 | 7.50 | 8.12 | Cc1nnc2n1CCN(C(=O)c1cccc(C(F)(F)F)c1Cl)[C@@H]2c1ccccn1 [Example 91, (R)-(2-chloro-3-(trifluoromethyl)phenyl)(3-methyl-8-(pyridin-2-yl)-5,6-dihydro-[1,2,4]triazolo[4,3-a]pyrazin-7(8H)-yl)methanone]
9.95 | 7.66 | 7.01 | Cc1nnc2n1CCN(C(=O)c1cccc(Cl)c1Cl)[C@H]2c1ccc(F)cc1 [Example 105, (S)-(2,3-dichlorophenyl)(8-(4-fluorophenyl)-3-methyl-5,6-dihydro-[1,2,4]triazolo[4,3-a]pyrazin-7(8H)-yl)methanone]
0.178 | 8.00 | 7.89 | O=C(c1cccc(C(F)(F)F)c1Cl)N1CCn2c(C3CC3)nnc2[C@@H]1c1ccc(F)cc1 [Example 107, (S)-(2-chloro-3-(trifluoromethyl)phenyl)(3-cyclopropyl-8-(4-fluorophenyl)-5,6-dihydro-[1,2,4]triazolo[4,3-a]pyrazin-7(8H)-yl)methanone]
> 10 | – | < 5.00 | O=C(c1cccc(C(F)(F)F)c1Cl)N1CCn2c(C(F)F)nnc2[C@@H]1c1ccccc1 [Example 109, (S)-(2-chloro-3-(trifluoromethyl)phenyl)(3-(difluoromethyl)-8-phenyl-5,6-dihydro-[1,2,4]triazolo[4,3-a]pyrazin-7(8H)-yl)methanone]
> 10 | – | < 5.00 | O=C(c1cccc(Cl)c1Cl)N1CCn2c(C(F)F)nnc2[C@@H]1c1ccccc1 [Example 111, (S)-(2,3-dichlorophenyl)(3-(difluoromethyl)-8-phenyl-5,6-dihydro-[1,2,4]triazolo[4,3-a]pyrazin-7(8H)-yl)methanone]
2.82 | 7.35 | 6.87 | Cc1nnc2n1CCN(C(=O)c1cccc(Cl)c1Cl)[C@@H]2c1ccccn1 [Example 112, (R)-(2,3-dichlorophenyl)(3-methyl-8-(pyridin-2-yl)-5,6-dihydro-[1,2,4]triazolo[4,3-a]pyrazin-7(8H)-yl)methanone]
> 10 | – | 5.42 | Cc1nnc2n1CCN(C(=O)c1cccc(Cl)c1Cl)[C@H]2c1ccccn1 [Example 113, (S)-(2,3-dichlorophenyl)(3-methyl-8-(pyridin-2-yl)-5,6-dihydro-[1,2,4]triazolo[4,3-a]pyrazin-7(8H)-yl)methanone]
> 10 | – | 5.39 | Cc1nnc2n1CCN(C(=O)c1cccc(C(F)(F)F)c1Cl)[C@@H]2c1ccc(F)cc1 [Example 114, (R)-(2-chloro-3-(trifluoromethyl)phenyl)(8-(4-fluorophenyl)-3-methyl-5,6-dihydro-[1,2,4]triazolo[4,3-a]pyrazin-7(8H)-yl)methanone]
0.623 | 8.00 | 8.10 | Cc1nnc2n1CCN(C(=O)c1cccc(C(F)(F)F)c1Cl)[C@H]2c1ccc(F)cc1 [Example 115, (S)-(2-chloro-3-(trifluoromethyl)phenyl)(8-(4-fluorophenyl)-3-methyl-5,6-dihydro-[1,2,4]triazolo[4,3-a]pyrazin-7(8H)-yl)methanone]
19.6 | – | 6.04 | O=C(c1ccc(F)cc1Cl)N1CCn2c(nnc2C(F)(F)F)[C@H]1c1ccccc1 [Example 118, (R)-(2-chloro-4-fluorophenyl)(8-phenyl-3-(trifluoromethyl)-5,6-dihydro-[1,2,4]triazolo[4,3-a]pyrazin-7(8H)-yl)methanone]
> 10 | – | 4.93 | O=C(c1ccc(F)c(Cl)c1Cl)N1CCn2c(nnc2C(F)(F)F)[C@@H]1c1ccccc1 [Example 125, (S)-(2,3-dichloro-4-fluorophenyl)(8-phenyl-3-(trifluoromethyl)-5,6-dihydro-[1,2,4]triazolo[4,3-a]pyrazin-7(8H)-yl)methanone]
